The values that follow come from patent US11725012B2, “Imidazo[1,5-a]pyrazine derivatives as PI3K δ inhibitors” (priority 2016, dated 2023).

Assay type in all cases: biochemical
The target of test [1] is recombinant PI3K (p110δ/p85α) (Homo sapiens, UniProt O00329). In words: PI3Kδ ADP-Glo kinase assay. As to conditions: read-out: PI3Kδ Enzyme activity IC50. The procedure: Compounds disclosed herein were tested for inhibition of PI3Kδ kinase activity using commercial ADP-Glo™ Kinase Assay (Promega Corporation) and following the manufacture's instruction. Briefly, recombinant PI3K (p110δ/p85α) enzyme, lipid kinase substrate and a serial dilution of compounds disclosed herein were incubated for 0.5 hr at room temperature. ATP was added to initiate the kinase reaction. After incubation for 1 hr at room temperature, ADP-Glo™ reagent was added to terminate the kinase reaction and deplete the remaining ATP. After incubation for 1 hr at room temperature, kinase detection reagent was added to simultaneously convert ADP to ATP and allow the newly synthesized ATP to be measured using a luciferase/luciferin reaction. After incubation for 0.5 hr at room temperature, the luminescence generated was measured on a PHERAstar FS plate reader (BMG LABTECH), The residual enzyme activity in presence of increasing concentrations of compounds was calculated based on the luminescence. The IC50 for each compound was derived from fitting the data to the four-parameter logistic equation by Graphpad Prism software.
recombinant PI3K (p110δ/p85α), sequence (O00329 whole entry): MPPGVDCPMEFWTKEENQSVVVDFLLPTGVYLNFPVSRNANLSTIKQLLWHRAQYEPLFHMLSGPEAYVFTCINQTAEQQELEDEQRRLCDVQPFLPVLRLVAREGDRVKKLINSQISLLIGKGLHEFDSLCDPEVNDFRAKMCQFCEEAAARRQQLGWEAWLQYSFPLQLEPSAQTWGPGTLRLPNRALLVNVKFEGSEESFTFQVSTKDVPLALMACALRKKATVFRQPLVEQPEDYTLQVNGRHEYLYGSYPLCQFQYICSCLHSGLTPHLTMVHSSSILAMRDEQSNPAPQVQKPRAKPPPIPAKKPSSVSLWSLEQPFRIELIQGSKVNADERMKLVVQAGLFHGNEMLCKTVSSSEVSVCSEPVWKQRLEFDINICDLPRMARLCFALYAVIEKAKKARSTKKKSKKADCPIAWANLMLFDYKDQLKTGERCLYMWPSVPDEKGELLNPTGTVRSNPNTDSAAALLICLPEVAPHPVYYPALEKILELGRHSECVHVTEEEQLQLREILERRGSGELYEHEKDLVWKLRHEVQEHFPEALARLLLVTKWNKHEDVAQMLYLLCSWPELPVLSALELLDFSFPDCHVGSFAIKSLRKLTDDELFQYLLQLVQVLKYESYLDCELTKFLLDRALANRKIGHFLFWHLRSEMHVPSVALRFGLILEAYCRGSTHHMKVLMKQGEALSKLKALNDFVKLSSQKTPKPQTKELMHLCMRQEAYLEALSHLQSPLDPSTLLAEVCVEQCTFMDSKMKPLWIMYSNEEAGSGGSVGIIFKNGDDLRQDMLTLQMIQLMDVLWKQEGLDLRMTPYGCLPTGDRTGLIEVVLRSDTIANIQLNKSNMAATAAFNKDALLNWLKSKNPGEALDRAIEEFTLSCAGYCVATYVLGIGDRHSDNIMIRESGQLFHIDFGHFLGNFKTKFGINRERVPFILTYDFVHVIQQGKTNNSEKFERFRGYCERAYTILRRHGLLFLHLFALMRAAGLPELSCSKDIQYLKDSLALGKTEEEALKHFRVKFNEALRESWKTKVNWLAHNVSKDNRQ
recombinant PI3K (p110δ/p85α), sequence (P27986 whole entry partner): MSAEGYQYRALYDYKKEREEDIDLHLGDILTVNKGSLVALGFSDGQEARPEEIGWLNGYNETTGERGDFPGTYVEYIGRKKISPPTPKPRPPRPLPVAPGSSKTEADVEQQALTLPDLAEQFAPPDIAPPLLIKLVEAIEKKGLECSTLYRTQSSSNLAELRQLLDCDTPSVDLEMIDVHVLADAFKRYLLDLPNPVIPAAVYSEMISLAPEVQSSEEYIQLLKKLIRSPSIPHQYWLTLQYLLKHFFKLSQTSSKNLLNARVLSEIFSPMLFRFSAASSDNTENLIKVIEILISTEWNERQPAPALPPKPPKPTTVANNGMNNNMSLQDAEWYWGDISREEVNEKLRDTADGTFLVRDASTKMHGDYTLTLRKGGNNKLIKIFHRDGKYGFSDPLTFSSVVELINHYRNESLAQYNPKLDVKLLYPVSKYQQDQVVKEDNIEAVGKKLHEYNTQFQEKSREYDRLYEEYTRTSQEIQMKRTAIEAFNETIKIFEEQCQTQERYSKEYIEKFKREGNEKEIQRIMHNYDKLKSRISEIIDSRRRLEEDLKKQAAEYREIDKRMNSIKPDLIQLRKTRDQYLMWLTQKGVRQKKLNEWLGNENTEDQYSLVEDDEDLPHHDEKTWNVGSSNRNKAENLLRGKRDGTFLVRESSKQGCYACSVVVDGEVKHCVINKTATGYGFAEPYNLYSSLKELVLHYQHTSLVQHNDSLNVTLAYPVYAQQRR
On the technique in general: In ADP-Glo the light output rises with the ADP produced.

A further test concerns the target PI3K (p110β/p85α) (Homo sapiens, UniProt P42338). In words: PI3Kβ ADP-Glo kinase assay. As to conditions: read-out: PI3Kβ max inhibition (%) at 0.5 μM.
A further test concerns the target PI3K (p110γ) (Homo sapiens, UniProt P48736). Briefly: PI3Kγ ADP-Glo kinase assay. As to conditions: for inhibition at 0.5 µM: read-out: PI3Kγ max inhibition (%) at 0.5 μM; for IC50: read-out: PI3Kγ Enzyme activity IC50.
Test [2] deals with recombinant PI3K (p110α/p85α) (Homo sapiens, UniProt P42336). In words: PI3Kα ADP-Glo kinase assay. As to conditions: for IC50: read-out: PI3Kα Enzyme activity IC50; for inhibition at 0.5 µM: read-out: PI3Kα max inhibition (%) at 0.5 μM.
recombinant PI3K (p110α/p85α), sequence (P42336 whole entry): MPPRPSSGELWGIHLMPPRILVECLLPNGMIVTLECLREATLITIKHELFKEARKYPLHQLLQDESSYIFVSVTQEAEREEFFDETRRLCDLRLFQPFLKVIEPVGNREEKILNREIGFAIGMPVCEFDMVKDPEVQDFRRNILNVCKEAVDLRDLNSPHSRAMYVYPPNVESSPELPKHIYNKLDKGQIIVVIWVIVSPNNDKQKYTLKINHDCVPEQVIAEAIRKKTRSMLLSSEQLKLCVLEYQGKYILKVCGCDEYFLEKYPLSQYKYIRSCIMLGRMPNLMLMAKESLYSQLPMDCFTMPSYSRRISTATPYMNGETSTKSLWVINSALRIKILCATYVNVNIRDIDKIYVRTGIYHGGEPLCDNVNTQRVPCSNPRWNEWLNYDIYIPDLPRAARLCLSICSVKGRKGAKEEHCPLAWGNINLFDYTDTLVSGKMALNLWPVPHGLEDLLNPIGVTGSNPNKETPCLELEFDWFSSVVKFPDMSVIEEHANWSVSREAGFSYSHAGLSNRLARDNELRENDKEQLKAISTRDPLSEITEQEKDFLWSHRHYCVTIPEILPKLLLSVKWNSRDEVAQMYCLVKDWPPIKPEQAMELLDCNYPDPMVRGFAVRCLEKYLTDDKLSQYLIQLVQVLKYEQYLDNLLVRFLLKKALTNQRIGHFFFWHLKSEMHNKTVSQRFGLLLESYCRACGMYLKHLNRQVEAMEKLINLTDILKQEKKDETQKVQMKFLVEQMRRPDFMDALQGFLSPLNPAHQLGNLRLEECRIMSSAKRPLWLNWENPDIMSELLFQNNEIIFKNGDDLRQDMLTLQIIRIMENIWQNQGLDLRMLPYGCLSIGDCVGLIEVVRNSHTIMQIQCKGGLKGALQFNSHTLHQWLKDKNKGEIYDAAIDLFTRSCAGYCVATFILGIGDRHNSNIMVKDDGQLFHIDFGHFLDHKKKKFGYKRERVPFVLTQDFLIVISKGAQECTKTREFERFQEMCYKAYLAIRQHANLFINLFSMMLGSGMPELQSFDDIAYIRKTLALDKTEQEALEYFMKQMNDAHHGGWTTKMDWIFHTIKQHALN
recombinant PI3K (p110α/p85α), sequence (P27986 whole entry partner): as the sequence (P27986 whole entry partner) above

Some results are limits rather than exact numbers.

PI3K (p110γ), sequence (P48736 whole entry): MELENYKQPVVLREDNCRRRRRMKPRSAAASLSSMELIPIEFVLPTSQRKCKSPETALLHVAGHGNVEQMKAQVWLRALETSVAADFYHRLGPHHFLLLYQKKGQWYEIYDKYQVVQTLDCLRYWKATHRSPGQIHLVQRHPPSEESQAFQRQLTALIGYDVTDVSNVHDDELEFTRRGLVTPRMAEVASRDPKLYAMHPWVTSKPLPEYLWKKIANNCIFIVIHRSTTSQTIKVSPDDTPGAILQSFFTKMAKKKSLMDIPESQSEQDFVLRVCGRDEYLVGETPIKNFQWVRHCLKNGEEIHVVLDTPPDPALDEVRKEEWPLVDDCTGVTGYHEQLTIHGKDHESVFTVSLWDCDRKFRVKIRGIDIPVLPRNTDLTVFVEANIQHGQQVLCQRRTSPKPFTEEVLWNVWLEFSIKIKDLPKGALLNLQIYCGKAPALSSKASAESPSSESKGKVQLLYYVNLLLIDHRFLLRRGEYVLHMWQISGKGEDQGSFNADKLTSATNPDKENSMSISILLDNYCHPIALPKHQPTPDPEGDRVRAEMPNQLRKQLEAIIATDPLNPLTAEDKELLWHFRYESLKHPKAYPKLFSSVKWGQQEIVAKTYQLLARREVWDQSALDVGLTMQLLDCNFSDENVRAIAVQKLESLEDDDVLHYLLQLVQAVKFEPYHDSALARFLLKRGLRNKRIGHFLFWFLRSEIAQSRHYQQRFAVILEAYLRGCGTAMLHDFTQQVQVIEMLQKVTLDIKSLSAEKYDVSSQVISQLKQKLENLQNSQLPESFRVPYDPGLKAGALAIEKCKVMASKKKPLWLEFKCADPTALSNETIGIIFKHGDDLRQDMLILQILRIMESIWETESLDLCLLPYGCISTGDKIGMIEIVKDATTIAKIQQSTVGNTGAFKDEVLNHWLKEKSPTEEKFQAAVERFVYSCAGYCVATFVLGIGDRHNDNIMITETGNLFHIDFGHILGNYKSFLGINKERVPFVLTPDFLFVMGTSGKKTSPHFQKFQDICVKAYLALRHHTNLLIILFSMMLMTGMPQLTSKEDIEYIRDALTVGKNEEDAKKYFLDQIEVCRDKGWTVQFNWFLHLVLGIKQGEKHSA
PI3K (p110β/p85α), sequence (P42338 whole entry): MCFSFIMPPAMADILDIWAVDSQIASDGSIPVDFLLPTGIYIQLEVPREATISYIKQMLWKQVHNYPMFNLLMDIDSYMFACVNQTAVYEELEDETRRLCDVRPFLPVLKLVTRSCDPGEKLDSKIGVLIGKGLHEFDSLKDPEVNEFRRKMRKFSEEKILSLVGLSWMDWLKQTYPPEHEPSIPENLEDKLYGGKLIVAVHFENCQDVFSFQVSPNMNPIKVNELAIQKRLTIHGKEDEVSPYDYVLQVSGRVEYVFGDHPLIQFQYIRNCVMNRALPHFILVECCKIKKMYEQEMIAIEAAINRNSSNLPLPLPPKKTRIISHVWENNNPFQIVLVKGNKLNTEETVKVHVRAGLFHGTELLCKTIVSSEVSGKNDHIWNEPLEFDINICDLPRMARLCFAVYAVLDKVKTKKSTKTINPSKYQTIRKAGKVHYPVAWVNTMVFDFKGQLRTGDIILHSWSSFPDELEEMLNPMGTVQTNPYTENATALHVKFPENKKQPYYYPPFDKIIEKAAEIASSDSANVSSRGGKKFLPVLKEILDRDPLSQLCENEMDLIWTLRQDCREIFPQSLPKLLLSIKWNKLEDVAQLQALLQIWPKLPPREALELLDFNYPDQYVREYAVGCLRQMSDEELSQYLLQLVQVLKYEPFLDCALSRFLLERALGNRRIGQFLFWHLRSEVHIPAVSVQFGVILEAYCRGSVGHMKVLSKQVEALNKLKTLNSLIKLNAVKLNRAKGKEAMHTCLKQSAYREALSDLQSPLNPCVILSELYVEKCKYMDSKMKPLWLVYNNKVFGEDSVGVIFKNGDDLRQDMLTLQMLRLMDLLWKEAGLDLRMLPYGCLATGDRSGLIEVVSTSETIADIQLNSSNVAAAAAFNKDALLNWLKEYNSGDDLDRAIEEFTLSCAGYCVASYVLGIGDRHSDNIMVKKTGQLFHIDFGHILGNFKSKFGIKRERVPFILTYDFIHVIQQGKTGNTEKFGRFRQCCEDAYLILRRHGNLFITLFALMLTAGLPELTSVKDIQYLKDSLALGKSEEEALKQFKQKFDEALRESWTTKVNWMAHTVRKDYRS
PI3K (p110β/p85α), sequence (P27986 whole entry partner): as the sequence (P27986 whole entry partner) above

For the molecule `CC(C)Oc1c(C(C)c2nc(Cl)c3c(N)nccn23)cc(Cl)c(F)c1-c1ccc(C(=O)O)nc1` (single isomer, unassigned) [Compound 18B], the IC50 in test [1] amounted to 26 nM.

Consider `CC(C)Oc1c(C(C)c2nc(Cl)c3c(N)nccn23)cc(Cl)c(F)c1C1CNC(=O)C1` (single isomer, unassigned) [Compound 48C, 4-(3-(1-(8-amino-1-chloroimidazo[1,5-a]pyrazin-3-yl)ethyl)-5-chloro-6-fluoro-2-isopropoxyphenyl)pyrrolidin-2-one], for which, in test [1], the IC50 came out at 160 nM.

As to `CC(C)Oc1c(C(C)c2nc(Cl)c3c(N)nccn23)cc(Cl)c(F)c1C1CNC(=O)C1` (single isomer, unassigned) [Compound 48D, 4-(3-(1-(8-amino-1-chloroimidazo[1,5-a]pyrazin-3-yl)ethyl)-5-chloro-6-fluoro-2-isopropoxyphenyl)pyrrolidin-2-one], the IC50 in test [1] is 6.8 nM.

With `CCOc1c(C(C)c2nc(Cl)c3c(N)nccn23)cc(Cl)c(F)c1C1CCOCC1` (single isomer, unassigned) [Compound 49B, 1-chloro-3-(1-(5-chloro-2-ethoxy-4-fluoro-3-(tetrahydro-2H-pyran-4-yl)phenyl)ethyl)imidazo[1,5-a]pyrazin-8-amine], the IC50 in test [1] was determined as 26 nM.

With `CCOc1c(C(C)c2nc(Cl)c3c(N)nccn23)cc(Cl)c(C)c1N1CCOCC1` (single isomer, unassigned) [Compound 51B, 1-chloro-3-(1-(5-chloro-2-ethoxy-4-methyl-3-morpholinophenyl)ethyl)imidazo[1,5-a]pyrazin-8-amine], the IC50 in test [1] amounted to 320 nM.

As for `Cc1nc(C(C)c2cc(Cl)c(F)c(-c3ccc(C#N)nc3)c2OC(C)C)n2ccnc(N)c12` (single isomer, unassigned) [Compound 59B, 5-(3-(1-(8-amino-1-methylimidazo[1,5-a]pyrazin-3-yl)ethyl)-5-chloro-6-fluoro-2-isopropoxyphenyl)picolinonitrile], the IC50 in test [1] was 240 nM.

As for `COc1c(C(C)c2ncc3c(N)nccn23)cc(Cl)c(C)c1-c1cccnc1` (stereo not shown) [Compound 1, 3-(1-(5-chloro-2-methoxy-4-methyl-3-(pyridin-3-yl)phenyl)ethyl)imidazo[1,5-a]pyrazine-8-amine], the IC50 in test [1] worked out at 150 nM. Further, the figures for the inhibition at 0.5 µM on PI3K (p110β/p85α) and at PI3K (p110γ) were 6% and -27%, respectively.

As to `COc1c(C(C)c2nc(Br)c3c(N)nccn23)cc(Cl)c(C)c1-c1cccnc1` (stereo not shown) [Compound 2, 1-bromo-3-(1-(5-chloro-2-methoxy-4-methyl-3-(pyridin-3-yl)phenyl)ethyl)imidazo[1,5-a]pyrazin-8-amine], the figures for the IC50 in test [1] and in test [2] were 1.5 nM and 560 nM, respectively. For the same molecule, the inhibition at 0.5 µM on PI3K (p110γ) was determined as 37%.

For `COc1c(C(C)c2nc(-c3ccccc3)c3c(N)nccn23)cc(Cl)c(C)c1-c1cccnc1` (stereo not shown) [Compound 3, 3-(1-(5-chloro-2-methoxy-4-methyl-3-(pyridin-3-yl)phenyl)ethyl)-1-phenylimidazo[1,5-a]pyrazin-8-amine], in test [1], the IC50 stood at 150 nM.

Consider `COc1c(C(C)c2nc(-c3cccc(O)c3)c3c(N)nccn23)cc(Cl)c(C)c1-c1cccnc1` (stereo not shown) [Compound 4, 3-(8-amino-3-(1-(5-chloro-2-methoxy-4-methyl-3-(pyridin-3-yl)phenyl)ethyl)imidazo[1,5-a]pyrazin-1-yl)phenol], for which the IC50 in test [1] was 7.5 nM. Also, the figures for the inhibition at 0.5 µM (in test [2]; on PI3K (p110γ)) were 20% and 9%, respectively.

`COc1c(C(C)c2nc(Br)c3c(N)ncc(Cl)n23)cc(Cl)c(C)c1-c1cccnc1` (stereo not shown) [Compound 5, 1-bromo-5-chloro-3-(1-(5-chloro-2-methoxy-4-methyl-3-(pyridin-3-yl)phenyl)ethyl) imidazo[1,5-a]pyrazin-8-amine]: the IC50 in test [1] worked out at 18 nM. Also, the inhibition at 0.5 µM worked out at 19% in test [2] and 44% on PI3K (p110γ).

Turning to `COc1c(C(C)c2nc(Cl)c3c(N)nccn23)cc(Cl)c(C)c1-c1cccnc1` (stereo not shown) [Compound 6, 1-chloro-3-(1-(5-chloro-2-methoxy-4-methyl-3-(pyridin-3-yl)phenyl)ethyl)imidazo[1,5-a]pyrazin-8-amine], the IC50 in test [1] is 2 nM. The inhibition at 0.5 µM in test [2] stood at 34%; at PI3K (p110γ) it was 52%.

Regarding `CCOc1c(C(C)c2nc(Br)c3c(N)nccn23)cc(Cl)c(C)c1-c1ccc(C)nc1` (stereo not shown) [Compound 7, 1-bromo-3-(1-(5-chloro-2-ethoxy-4-methyl-3-(6-methylpyridin-3-yl)phenyl)ethyl) imidazo[1,5-a]pyrazin-8-amine], the IC50 is 1.9 nM in test [1], 420 nM in test [2] and 200 nM at PI3K (p110γ).

For `CCOc1c([C@@H](C)c2nc(Cl)c3c(N)nccn23)cc(Cl)c(C)c1-c1ccc(C)nc1` [Compound 8B], in test [1], the IC50 was determined as 170 nM.

As to `CCOc1c(C(C)c2nc(Br)c3c(N)nccn23)cc(Cl)c(C)c1-c1ccc(Cl)cc1` (stereo not shown) [Compound 9, 1-bromo-3-(1-(4′,5-dichloro-2-ethoxy-6-methyl-[1,1′-biphenyl]-3-yl)ethyl)imidazo[1,5-a]pyrazin-8-amine], the IC50 in test [1] was determined as 100 nM.

`CC(C)Oc1c([C@@H](C)c2nc(Cl)c3c(N)nccn23)cc(Cl)c(F)c1-c1ccc(C(=O)N(C)C)nc1` [Compound 16B]: the IC50 in test [1] amounted to 62 nM.

`CC(C)Oc1c([C@@H](C)c2nc(Cl)c3c(N)nccn23)cc(Cl)c(F)c1-c1ccc(C(N)=O)nc1` [Compound 17A]: in test [1], the IC50 was found to be 91 nM.

Take `COc1c(C(C)c2nc(Br)c3c(N)nccn23)cc(Cl)c(C)c1-c1c(C)noc1C` (stereo not shown) [Compound 21, 1-bromo-3-(1-(5-chloro-3-(3,5-dimethylisoxazol-4-yl)-2-methoxy-4-methylphenyl)ethyl)imidazo[1,5-a]pyrazin-8-amine]: the IC50 was found to be 3.3 nM in test [1], 2000 nM in test [2] and 1500 nM at PI3K (p110γ).

For `CCOc1c([C@@H](C)c2nc(Cl)c3c(N)nccn23)cc(Cl)c(C)c1-c1ccc(Cl)nc1` [Compound 27B], the IC50 in test [1] worked out at 500 nM.

As for `CCOc1c(C(C)c2nc(C)c3c(N)nccn23)cc(F)c(Cl)c1-c1ccc(C(F)(F)F)nc1` (stereo not shown) [Compound 34, 3-(1-(4-chloro-2-ethoxy-5-fluoro-3-(6-(trifluoromethyl)pyridin-3-yl)phenyl)ethyl)-1-methylimidazo[1,5-a]pyrazin-8-amine], the IC50 in test [1] was found to be 43 nM.

`Cc1c(Cl)cc([C@@H](C)c2nc(Br)c3c(N)nccn23)c(OC(C)C)c1-c1ccc(C(F)(F)F)nc1` [Compound 38B]: in test [1], the IC50 came out at 2100 nM.

Take `CC(C)Oc1c([C@@H](C)c2nc(Cl)c3c(N)nccn23)cc(Cl)c(F)c1-c1ccc(C(F)(F)F)nc1` [Compound 40B]: in test [1], the IC50 turned out to be 150 nM.

In the case of `CCOc1c([C@@H](C)c2nc(Cl)c3c(N)nccn23)cc(Cl)c(F)c1-c1ccc(C(F)(F)F)nc1` [Compound 41B], the IC50 in test [1] was 350 nM.

On to `CCCOc1c([C@@H](C)c2nc(Cl)c3c(N)nccn23)cc(Cl)c(F)c1-c1ccc(C(F)(F)F)nc1` [Compound 42B], for which the IC50 in test [1] was determined as 330 nM.

`CCOc1c([C@@H](C)c2nc(Cl)c3c(N)nccn23)cc(Cl)c(F)c1-c1ccc(C(F)(F)F)nc1OC` [Compound 43B]: the IC50 in test [1] is > 1000 nM.

Turning to `CCOc1c(C(C)c2nc(-c3ccc(OC)cc3)c3c(N)nccn23)cc(Cl)c(C)c1-c1ccc(OC)cc1` (stereo not shown) [Compound 44, 3-(1-(5-chloro-2-ethoxy-4′-methoxy-6-methyl-[151′-biphenyl]-3-yl)ethyl)-1-(4-methoxyphenyl)imidazo[1,5-a]pyrazin-8-amine], the IC50 in test [1] was determined as 380 nM.

With `CCOc1c(C(C)c2nc(Cl)c3c(N)nccn23)cc(Cl)c(F)c1C1CCOCC1` (stereo not shown) [Compound 49, 1-chloro-3-(1-(5-chloro-2-ethoxy-4-fluoro-3-(tetrahydro-2H-pyran-4-yl)phenyl)ethyl)imidazo[1,5-a]pyrazin-8-anine], the IC50 in test [1] was 3.1 nM.

As to `COc1c(C(C)c2nc(C)c3c(N)nccn23)cc(Cl)c(C)c1-c1cccnc1` (stereo not shown) [Compound 52, 3-(1-(5-chloro-2-methoxy-4-methyl-3-(pyridin-3-yl)phenyl)ethyl)-1-methyl imidazo[1,5-a]pyrazin-8-amine], in test [1], the IC50 stood at 7.7 nM. For the same molecule, the inhibition at 0.5 µM in test [2] is 6%; on PI3K (p110γ) it was -11%.

With `COc1c(C(C)c2nc(C3CC3)c3c(N)nccn23)cc(Cl)c(C)c1-c1cccnc1` (stereo not shown) [Compound 53, 3-(1(5-chloro-2-methoxy-4-methyl-3-(pyridin-3-yl)phenyl)ethyl)-1-cyclopropyl imidazo[1,5-a]pyrazin-8-amine], the IC50 in test [1] came out at 1900 nM.

As for `Cc1nn(C(C)c2cc(Cl)c(C#N)c(=O)n2-c2ccccc2)c2ncnc(N)c12` (stereo not shown) [Compound 55, 6-(1-(4-amino-3-methyl-1H-pyrazolo[3,4-d]pyrimidin-1-yl)ethyl)-4-chloro-2-oxo-1-phenyl-1,2-dihydropyridine-3-carbonitrile], in test [1], the IC50 is 450 nM.

A word on the IC50: it is the concentration at which inhibition is half-maximal. In general, inhibition refers to the relative decrease from the control value, in per cent.
